The nature of series [1]: Compound cytotoxicity, XTT-based colorimetric assay. In kind it is cell-based. To be noted: human; uninfected MT2 cells, day 4, XTT; read-out: CC50. How it is done:
Compound cytotoxicity and the corresponding CC50 values were determined using the same protocol as described in the antiviral assay except that uninfected cells were used. Cytotoxicity was assessed on day 4 in uninfected MT2 cells by using a XTT (2,3-bis[2-Methoxy-4-nitro-5-sulfophenyl]-2H-tetrazolium-5-carboxyanilide inner salt)-based colorimetric assay (Sigma-Aldrich, St Louis, Mo.).
On the technique in general: Formazan colour is commonly taken as a measure of viable cells.

Series [2] deals with recombinant NL4-3 virus. Put plainly: HIV cell culture assay (antiviral activity, luciferase readout in MT-2 cells). In kind it is cell-based. To be noted: Human immunodeficiency virus 1, NL43, MT2. On the procedure:
HIV cell culture assay—MT-2 cells, 293T cells and the proviral DNA clone of NL4-3 virus were obtained from the […] AIDS Research and Reference Reagent Program. MT-2 cells were propagated in RPMI 1640 media supplemented with 10% heat inactivated fetal bovine serum (FBS), […] penicillin G and up to 100 units/mL streptomycin. The 293T cells were propagated in DMEM media supplemented with 10% heat inactivated FBS, […] penicillin G and […] streptomycin. A recombinant NL4-3 proviral clone, in which a section of the nef gene was replaced with the Renilla luciferase gene, was used to make the reference virus used in these studies. The recombinant virus was prepared through transfection of the recombinant NL4-3 proviral clone into 293T cells using Transit-293 Transfection Reagent from Mirus Bio LLC (Madison, Wis.). Supernatent was harvested after 2-3 days and the amount of virus present was titered in MT-2 cells using luciferase enzyme activity as a marker by measuring luciferase enzyme activity. Luciferase was quantitated using the EnduRen Live Cell Substrate from Promega (Madison, Wis.). Antiviral activities of compounds toward the recombinant virus were quantified by measuring luciferase activity in MT-2 cells infected for 4-5 days with the recombinant virus in the presence of serial dilutions of the compound.
The 50% effective concentration (EC50) was calculated by using the exponential form of the median effect equation where (Fa)=1/[1+(ED50/drug conc.)m] (Johnson V A, Byington R T. Infectivity Assay. In Techniques in HIV Research. ed. Aldovini A, Walker B D. 71-76. New York: Stockton Press. 1990). The 50% inhibitory concentration (EC50) was calculated by using the exponential form of the median effect equation where percent inhibition=1/[1+(EC50/drug concentration)m], where m is a parameter that reflects the slope of the concentration-response curve.

As for `Cn1nc(NS(C)(=O)=O)c2c(Cl)ccc(-n3c([C@H](Cc4cc(F)cc(F)c4)NC(=O)Cn4nc(C(F)F)c5c4C(F)(F)[C@@H]4C[C@H]54)nc4cc(N5CCOCC5)ccc4c3=O)c21` (atropisomer, axis not shown; (P)) [Example 12, N—((S)-1-((3P)-3-(4-chloro-1-methyl-3-(methylsulfonamido)-1H-indazol-7-yl)-7-morpholino-4-oxo-3,4-dihydroquinazolin-2-yl)-2-(3,5-difluorophenyl)ethyl)-2-((3bS,4aR)-3-(difluoromethyl)-5,5-difluoro-3b,4,4a,5-tetrahydro-1H-cyclopropa[3,4]cyclopenta[1,2-c]pyrazol-1-yl)acetamide], in series [1], the 50% cytotoxic concentration (CC50) (commonly the concentration that lowers cell viability or growth by half) at 4 days is greater than 1000 nM. Also, in series [2], the concentration for a half-maximal effect (EC50) (commonly the midpoint of the concentration-response curve) turned out to be 0.035 nM.
As to `C[C@@H]1CN(c2ccc3c(=O)n(-c4ccc(Cl)c5c(NS(C)(=O)=O)nn(CC(F)(F)F)c45)c([C@H](Cc4cc(F)cc(F)c4)NC(=O)Cn4nc(C5CC5)cc4C(F)F)nc3c2)C[C@H](C)O1` (atropisomer, axis not shown; (P)) [Example 60, N—((S)-1-((3P)-3-(4-chloro-3-(methylsulfonamido)-1-(2,2,2-trifluoroethyl)-1H-indazol-7-yl)-7-((2S,6R)-2,6-dimethylmorpholino)-4-oxo-3,4-dihydroquinazolin-2-yl)-2-(3,5-difluorophenyl)ethyl)-2-(3-cyclopropyl-5-(difluoromethyl)-1H-pyrazol-1-yl)acetamide], in series [1], the CC50 at 4 days was greater than 500 nM. For the same molecule, the EC50 in series [2] came out at 0.36 nM.
On to `Cn1nc(NS(C)(=O)=O)c2c(Cl)ccc(-n3c([C@H](Cc4cc(F)cc(F)c4)NC(=O)Cn4nc(C(F)F)c5c4C(F)(F)[C@@H]4C[C@H]54)nc4cc(N5CCC[C@H]5CO)ccc4c3=O)c21` (atropisomer, axis not shown; (P)) [Example 35, N—((S)-1-((3P)-3-(4-chloro-1-methyl-3-(methylsulfonamido)-1H-indazol-7-yl)-7-((S)-2-(hydroxymethyl)pyrrolidin-1-yl)-4-oxo-3,4-dihydroquinazolin-2-yl)-2-(3,5-difluorophenyl)ethyl)-2-((3bS,4aR)-3-(difluoromethyl)-5,5-difluoro-3b,4,4a,5-tetrahydro-1H-cyclopropa[3,4]cyclopenta[1,2-c]pyrazol-1-yl)acetamide], for which, in series [1], the CC50 at 4 days was greater than 10000 nM. Also, the EC50 in series [2] turned out to be 0.272 nM.
Regarding `O=C(Cn1nc(C(F)F)cc1C(F)F)N[C@@H](Cc1cc(F)cc(F)c1)c1nc2cc(N3CCCCC3)ccc2c(=O)n1-c1ccc(Cl)c2c(NS(=O)(=O)C3CC3)nn(CC(F)F)c12` (atropisomer, axis not shown; (P)) [Example 37, (S)-2-(3,5-bis(difluoromethyl)-1H-pyrazol-1-yl)-N-(1-((3P)-3-(4-chloro-3-(cyclopropanesulfonamido)-1-(2,2-difluoroethyl)-1H-indazol-7-yl)-4-oxo-7-(piperidin-1-yl)-3,4-dihydroquinazolin-2-yl)-2-(3,5-difluorophenyl)ethyl)acetamide], the CC50 at 4 days in series [1] was greater than 1000 nM. Moreover, the EC50 in series [2] came out at 2.34 nM.
Turning to `Cn1nc(NS(C)(=O)=O)c2c(Cl)ccc(-n3c([C@H](Cc4cc(F)cc(F)c4)NC(=O)Cn4nc(C(F)F)c5c4C(F)(F)[C@@H]4C[C@H]54)nc4cc(N5CCC(O)CC5)ccc4c3=O)c21` (atropisomer, axis not shown; (P)) [Example 24, N—((S)-1-((3P)-3-(4-chloro-1-methyl-3-(methylsulfonamido)-1H-indazol-7-yl)-7-(4-hydroxypiperidin-1-yl)-4-oxo-3,4-dihydroquinazolin-2-yl)-2-(3,5-difluorophenyl)ethyl)-2-((3bS,4aR)-3-(difluoromethyl)-5,5-difluoro-3b,4,4a,5-tetrahydro-1H-cyclopropa[3,4]cyclopenta[1,2-c]pyrazol-1-yl)acetamide], the half-maximal cytotoxic concentration (CC50) at 4 days in series [1] is greater than 500 nM. The EC50 in series [2] was determined as 0.118 nM.

The values are drawn from patent publication US20210395262A1, “INHIBITORS OF HUMAN IMMUNODEFICIENCY VIRUS REPLICATION” (ViiV HEALTHCARE UK (NO.5) LIMITED, priority 2018, published 2021).
